Data published in US20150093333A1, “COMPOSITIONS, METHODS AND USES FOR PEPTIDES IN DIAGNOSIS, PROGRESSION AND TREATMENT OF CANCERS” (THE REGENTS OF THE UNIVERSITY OF COLORADO, body corporate, priority 2003, published 2015).

Columns and labels:
[1] = tested on: synthetic lipid vesicles; experiment: Fluorescence enhancement assay of NBD-labeled MARCKS peptides with synthetic vesicles; assay type: binding; conditions: FIG. 4B
Description: In another exemplary method, lipid vesicles were employed to the curvature-sensing behavior of the MARCKS derived peptides with various sizes and lipid components. The membrane curvature is defined as the reciprocal of the diameter of a particular particle, e.g., smaller-sized vesicles present highly curved membrane bilayers. A series of lipid models were made to represent various lipid components that closely resemble the lipid composition of biological membranes. […] Dynamic light scattering (DLS) and negative-stain transmission electron microscopy (TEM) were performed to confirm the different vesicle sizes following the pressure-controlled extrusion process through different membrane diameter pores. Commercial polystyrene beads were used as the calibration standard for the vesicle size validation experiments. Furthermore, a time-course experiment was carried out to confirm the stability of the vesicles up to 16 hours. Three different membrane diameters were extruded for the following biophysical characterizations: 30 nm, 100 nm, 400 nm, reflecting different membrane curvatures.
Next, a fluorescence enhancement assay was conducted to further quantify the curvature- and PS-sensing behavior of MARCKS-ED. Appropriate controls were performed to confirm that the fluorophore alone had no effect on the observed fluorescence enhancement (data not shown). FIG. 4 represents histogram data of fluorescence enhancement assay with and fluorescence anisotropy titration of the NBD labeled MARCKS derived peptides. Upon binding to lipid vesicles, the fluorescence intensity of NBD-MARCKS-ED increased due to vesicle binding and changes in the hydrophobic environment surrounding the fluorophore, concurring with a slight blue shift of the maximum emission wavelength. The emission spectra of all NBD-labeled peptides were recorded using a Fluorolog-3 fluorometer with λex=480 nm. The peptides and protein were tested at a concentration of 500 nM in PBS (pH 7.40) treated with 500 μM synthetic vesicles of different vesicles sizes. […] The positive control C2AB (200 nM) from the rat Synaptotagmin-1 (Syn-1) protein (G374, residues 96-421) was treated with CaCl2 (2.5 mM) and observed with λex of 275 nm and emission range of 300-450 nm. The untreated peptide and Ca^2+-C2AB samples were corrected by the PBS (pH=7.40) blank solution for the peptides and PBS with Ca^2+ for the Ca^2+-C2AB sample. All samples were prepared and incubated overnight in 4° C.
FIG. 4A illustrates a histogram plot of fluorescence intensity of MARCKS-ED treated with lipid vesicles of various sizes. […] Last, the fluorescence intensity differences were less significant with vesicles containing no PS. […]

[2] = tested on: lipid vesicles 60% POPC:15% cholesterol:15% POPE:10% POPS; experiment: Fluorescence anisotropy titration of NBD-labeled MARCKS peptides with lipid vesicles; assay type: binding; conditions: FIG. 4D
Description: In another example, because fluorescence enhancement assays could not distinguish the contributions between different degrees of membrane penetration and binding affinity, fluorescence anisotropy assay was performed to specifically measure the binding affinity of the MARCKS derived peptides. The NBD-labeled peptides (1 μM) were titrated by synthetic liposomes of various sizes (30, 100, and 400 nm). Fluorescence anisotropy was recorded using a Fluorolog-3 fluorometer. The mixture was allowed to equilibrate for 2 minutes prior to the next titration. The excitation wavelength was set to λex=480 nm whereas the emission filter was set to λem=545 nm. The voltage was set to 250 V throughout the experiment. Blank PBS (pH=7.40) was titrated to NBD-labeled peptides as a negative control, where negligible anisotropy change was observed. The following equation was used to determine the dissociation constants as previously reported: Fb=Kp [L]/(1+KP[L]), where Fb expresses the fraction of peptide bound to lipids, Kp expresses the molar partition coefficient and [L] expresses the lipid concentration.
Lipid vesicles were titrated to NBD-labeled MARCKS-ED, MARCKSmut1, or MARCKSmut2 peptides. Since the peptide partitions between the hydrophobic lipid bilayer and the aqueous solvent, the molar partition coefficient is often reported. By definition, the apparent dissociation constant (Kd), described as the lipid concentration where 50% of the peptide is bound, is the reciprocal of the molar partition coefficient (Kp). Fluorescence anisotropy assay results indicated efficient curvature sensing by MARCKS-ED. FIG. 4C represents an exemplary fluorescence anisotropy titration of MARCKS-ED with various lipid vesicles. FIG. 4D provides data of fluoresence anisotropy titration of various MARCKS derived peptides. Lipid vesicles used in the experiments represented by FIGS. 4C-4D contained 60% POPC:15% cholesterol: 15% POPE: 10% POPS. […] As a comparison, C2AB illustrated a 1.9 fold increase in binding to smaller vesicles (105 nm) relative to the larger ones (252 nm). […] In addition, electrostatic interactions of MARCKSmut2 were also compromised. […] Such defects would permit the Phe residue to insert and stabilize the highly curved membranes.

[3] = tested on: microvesicles in plasma; experiment: Nanoparticle tracking analysis of microvesicles in plasma from stressed rats treated with MARCKS peptides; assay type: binding, rat; conditions: Alexa Fluor 546 labeled peptides 55 nM
Description: These isolated microvesicles were measured by nanoparticle tracking analysis (NTA) to confirm their average size (ø=56 nm). Tracking analyses were performed using the NanoSight LM10-HS instrument (Amesbury, UK) equipped with a 532 nm laser and observed at scatter and fluorescence modes (filter=550 nm). The instrument was calibrated using commercially available 50 nm polystyrene beads. […] Alexa Fluor 546™-labeled mouse anti-rat CD63 and unconjugated Alexa Fluor 546™ were used as positive and negative controls, respectively. The profiles of MARCKS-ED-Alexa Fluor 546™ and Alexa Fluor 546™ in the absence of microvesicles were also investigated to confirm that these show negligible scatter and fluorescence background signals under identical NTA conditions.
FIG. 5A represents fluorescence enhancement assay with MARCKS-ED incubated with the isolated microvesicles. Peptide MARCKS-ED ([…]) not treated with microvesicles was used as a negative control. Annexin-V (a positive control) and MARCKS-ED were incubated with the isolated rat microvesicles. Fluorescence was normalized to the negative control. […] The diameter size and particle count of the isolated microvesicles detected by MARCKS-ED was further quantified. Nanoparticle tracking analysis (NTA) uses a laser for scatter and fluorescence modes to track small particles by Brownian motion, providing a robust method for detecting nano-sized microvesicles. Under the fluorescence mode with the emission filter set for the Alexa Fluor 546™, the particles that bound to MARCKS-ED, MARCKSmut1, and MARCKSmut2peptides were observed.
FIG. 5B illustrates the results of NTA of microvesicles treated with MARCKS derived peptides. […] The untreated plasma samples were detected using the scatter mode and treated samples were monitored by tracking the fluorescence of Alexa Fluor 546™ conjugated to the MARCKS-ED MARCKSmut1 and MARCKSmut2 peptides. […] Furthermore, blank samples were performed to rule out possible artifacts of background fluorescence from the peptides, the vesicles and the unconjugated dye.

[4] = tested on: PS-exposing cell membranes; experiment: Fluorescence staining of PS-exposing membranes in dissected gonads of C. elegans; assay type: in vivo; conditions: wild type (N2), tat-1(tm3117) and ced-7(n2094) animals
Description: Fluorescence staining assays were carried out in an acceptible C. elegans model with PS-exposing cell membranes. […] NBD-MARCKS-ED was used to stain the dissected gonads of wild type (N2) animals, tat-1(tm3117) mutant animals, and engulfment-deficient ced-7 (n2094) mutant animals, respectively. 36 hour old hermaphrodite adult animals were collected and gently dissected by cutting their heads in a depression slide with a gonad dissection buffer (previously presented) to expose the gonads. The exposed gonads were then washed once in the dissection buffer and transferred to a dissection buffer containing 4 μM of Hoechst 33342 and 20 μM of NBD labeled MARCKS-ED peptide, 20 μM NBD-MARCKSmut1 peptide, or 10 nM Alexa Fluor 488-conjugated Annexin-V for 45 minutes. Gonads were washed one more time in the dissection buffer, placed on a 5% agarose pad, and visualized using a Nomarski microscope equipped with an epifluorescence detector.
FIGS. 6A-6C illustrate exemplary staining results using MARCKS derived peptides and Annexin V. PS is typically kept in the inner leaflet of plasma membranes in living cells and is exposed on the cell surface only under certain cellular events, i.e., when cells undergo apoptosis or lose the ability to maintain the PS asymmetry with a tat-1 gene mutation. FIG. 6A represents the staining results with labeled MARCKS-ED in wild type and mutants C. elegans. […] FIG. 6B represents the staining results with labeled MARCKSmut1 in wild type and mutants C. elegans. […] In FIGS. 6A-6B, nuclei were stained with Hoechst 33342. Annexin-V, a known PS-sensor, was also used to stain the gonads of tat-1 and ced-7 mutant C. elegans. […] Hoechst33342 (4 μM), FITC-AnnexinV (10 nM) and Nomarski images are shown. […] Scale bar=10 μm.

[5] = tested on: isolated microvesicles; experiment: Fluorescence enhancement with isolated rat microvesicles; assay type: binding
Description: In another exemplary method, having established the simultaneous curvature- and PS-sensing by MARCKS-ED in synthetic liposomes, MARCKS-ED was tested on detection of highly curved, PS-enriched particles in a complex biological system. Microvesicles (ø=0.03-1 μm) are highly curved lipid vesicles that shed into body fluids (e.g., blood, urine, ascitic fluid). These vesicles are released by cancerous cells in which lipid asymmetry is de-regulated, contributing to externalization and enrichment of PS on their outer leaflet. The microvesicle detecting ability of MARCKS-ED was investigated using plasma samples from a stressed rat model. […]
Microvesicles in these samples were characterized by TEM imaging, and ELISA of detection of the signature CD63 protein and the membrane transport protein Rab5b exposed on the surface. Particles expressing both proteins were captured by antibodies and quantified in a colorimetric endpoint assay.
These isolated microvesicles were measured by nanoparticle tracking analysis (NTA) to confirm their average size (ø=56 nm). Tracking analyses were performed using the NanoSight LM10-HS instrument (Amesbury, UK) equipped with a 532 nm laser and observed at scatter and fluorescence modes (filter=550 nm). […]
Monitored at λex=295 nm, Annexin-V (0.32 μM) was treated with CaCl2 (3 mM) in TES buffer and with 500 μM lipid vesicles of varying PS content. […]

[6] = tested on: 29 nm liposomes; conditions: with 29 nm liposomes; cited from earlier work

## AAAAAAFSFAASFALSGFSFAANAA [MARCKSmut2, MARCKS-ED with positively charged residues (Lys, Arg) mutated to Ala]
[1]
  fluorescence enhancement and curvature sensing: significantly reduced fluorescence enhancement
[2]
  binding affinity: compromised
[3]
  binding to microvesicles in whole plasma (NTA fluorescence mode): only negligible binding

## Annexin-V: established PS-sensing protein, positive control [reference compound]
[4]
  staining of PS-exposed membranes: germ cell corpses stained with both Hoechst and FITC-AnnexinV protein
[5]
  binding to isolated microvesicles (fluorescence enhancement): Fluorescence enhancement was observed

## Golgi-microtubule-associated protein-2101-38: ALPS motif-bearing established curvature-sensing protein fragment (MSSWLGGLGSGLGQSLGQVGGSLASLTGQISNFTKDML; UniProt Q15643 1-38, looked up, fragment)
[6]
  fluorescence enhancement: ~1.25 RFU

## KKKKKRASAKKSAKLSGASAKKNKK [MARCKSmut1, MARCKS-ED with the five Phe residues mutated to Ala]
[1]
  fluorescence enhancement and curvature sensing: significantly reduced fluorescence enhancement
[2]
  binding affinity: greatly reduced binding affinity
[3]
  binding to microvesicles in whole plasma (NTA fluorescence mode): some preferential binding to smaller vesicles but with much weaker fluorescence signal
[4]
  staining of PS-exposed membranes: did not appear to detect PS-exposed membranes in either tat-1 or ced-7 mutant animals

## nuclear pore complex protein-133245-267: ALPS motif-bearing established curvature-sensing protein fragment (LPQGQGMLSGIGRKVSSLFGILS; UniProt Q8WUM0 245-267, looked up, fragment)
[6]
  fluorescence enhancement: ~1.25 RFU
